Target: Recombinant GST-Tie2 (Homo sapiens, UniProt Q02763)
Assay: Tie2 fluorescence polarization kinase activity assay (TIE2-FP)
Assay type: biochemical
Details: 200 μM ATP, 1 nM activated enzyme, 200 μM peptide
Protocol: Tie2 Fluorescence Polarization Kinase Activity Assay (TIE2-FP).
Activation of Recombinant Tie2 Activation:
Recombinant GST-Tie2 is activated by incubating the enzyme in 20 mM Tris-HCl, pH 7.5, 12 mM MgCl2, 100 mM NaCl, 20 μM sodium vanidate, 1 mM DTT and 300 μM ATP at room temperature for 2 hours. The activation mixture is then passed through a NAP-25 desalting column (Pharmacia Biotech cat. no. 17-0852-02) to remove the free ATP. The activated enzyme is stored as aliquots at −80° C. in 20 mM Tris-HCl, pH 7.5 and 100 mM NaCl.
The final assay conditions are 50 mM HEPES, pH 7.5, 5% DMSO (when screening compounds), 200 μM ATP, 5 mM MgCl2, 1 mM DTT, 50 μM sodium vanidate, 1 nM activated enzyme, and 200 μM peptide. IC50's of compounds are measured under subsaturating ATP (200 μM) and varing concentrations of activated Tie2 and peptide substrate (RFWKYEFWR-OH; MW 1873 Da, TFA salt). Panvera Anti-phosphotyrosine antibody (Cat#P2840) and PTK Green Tracer (Cat#P2842) are used to detect the phosphorylated peptide. Polarization is measured on a TECAN Polarion in 138-second cycles for 30 minutes at room temperature. IC50's are then determined from the % polarization using normal calculation methods.

Chain of Recombinant GST-Tie2 (Q02763 23-1124): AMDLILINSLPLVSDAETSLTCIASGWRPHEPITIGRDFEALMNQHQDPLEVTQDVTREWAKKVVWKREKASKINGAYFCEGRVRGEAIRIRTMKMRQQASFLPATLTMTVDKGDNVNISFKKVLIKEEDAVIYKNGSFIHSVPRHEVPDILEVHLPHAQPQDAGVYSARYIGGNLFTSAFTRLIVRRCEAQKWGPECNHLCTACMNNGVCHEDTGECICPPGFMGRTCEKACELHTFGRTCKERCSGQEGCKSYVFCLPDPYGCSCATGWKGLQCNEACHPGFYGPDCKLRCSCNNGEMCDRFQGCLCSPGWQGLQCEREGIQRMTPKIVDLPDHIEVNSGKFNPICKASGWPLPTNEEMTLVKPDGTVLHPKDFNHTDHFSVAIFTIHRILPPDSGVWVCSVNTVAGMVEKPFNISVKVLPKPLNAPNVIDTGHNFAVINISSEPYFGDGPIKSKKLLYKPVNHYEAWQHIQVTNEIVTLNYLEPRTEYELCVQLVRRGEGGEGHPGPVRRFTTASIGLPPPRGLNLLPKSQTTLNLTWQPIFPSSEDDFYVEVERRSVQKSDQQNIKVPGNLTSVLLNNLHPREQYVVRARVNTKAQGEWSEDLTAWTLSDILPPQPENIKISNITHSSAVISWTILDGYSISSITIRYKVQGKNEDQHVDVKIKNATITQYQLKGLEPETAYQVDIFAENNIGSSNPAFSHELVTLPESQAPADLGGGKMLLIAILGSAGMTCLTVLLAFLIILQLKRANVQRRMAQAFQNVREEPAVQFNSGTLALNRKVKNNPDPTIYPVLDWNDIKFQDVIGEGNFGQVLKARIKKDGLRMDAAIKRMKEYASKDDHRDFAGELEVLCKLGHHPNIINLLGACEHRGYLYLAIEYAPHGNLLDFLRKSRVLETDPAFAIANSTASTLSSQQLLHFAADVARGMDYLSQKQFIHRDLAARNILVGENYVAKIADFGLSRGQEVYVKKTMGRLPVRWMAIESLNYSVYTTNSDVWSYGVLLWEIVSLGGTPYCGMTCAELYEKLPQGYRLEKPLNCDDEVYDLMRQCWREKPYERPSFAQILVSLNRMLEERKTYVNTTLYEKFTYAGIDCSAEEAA

## NC(=O)c1c(-c2ccc(NC(=O)Nc3cc(C(F)(F)F)ccc3F)cc2)csc1N [Example 1, 2-Amino-4-{4-[3-(2-fluoro-5-trifluoromethyl-phenyl)-ureido]-phenyl}-thiophene-3-carboxylic acid amide]
  IC50: < 100 nM
